# Experimental data published in patent publication US20230014907A1, “INHIBITORS OF APOL1 AND METHODS OF USING SAME” (Vertex Pharmaceuticals Incorporated, priority 2020, published 2023).
# Molecular target: T1, G1 APOL1 (Homo sapiens, UniProt O14791, I384M/S342G)
# T1 construct: expressed in transfected cells
# T1 sequence (O14791 28-398 S342G/I384M): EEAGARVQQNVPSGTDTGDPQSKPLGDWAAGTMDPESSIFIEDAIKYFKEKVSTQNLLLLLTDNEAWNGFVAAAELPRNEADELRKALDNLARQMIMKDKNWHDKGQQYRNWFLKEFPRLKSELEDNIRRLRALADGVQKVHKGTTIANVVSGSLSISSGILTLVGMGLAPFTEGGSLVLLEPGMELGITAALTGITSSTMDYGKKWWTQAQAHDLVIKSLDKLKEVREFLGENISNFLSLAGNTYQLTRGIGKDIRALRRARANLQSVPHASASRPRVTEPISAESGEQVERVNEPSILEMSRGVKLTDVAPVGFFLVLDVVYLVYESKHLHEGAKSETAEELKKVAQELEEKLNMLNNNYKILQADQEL
# Experiment: Acute APOL1 Thallium Assay with Inducible Stable Clones of HEK 293 Cells
# Type: cell-based
# Conditions: not given
# Source text: Acute APOL1 Thallium Assay with Inducible Stable Clones of HEK 293 Cells
# Apolipoprotein L1 (APOL1) proteins form potassium-permeable cation pores in the plasma membrane. APOL1 risk variants (G1 and G2) induce greater potassium flux than G0 in HEK293 cells. This assay exploits the permeability of thallium (Tl+) through ligand-gated potassium channels. The dye produces a bright fluorescent signal upon binding to Tl+ conducted through potassium channels. The intensity of the Tl+ signal is proportional to the number of potassium channels in the open state. Therefore, it provides a functional indication of the potassium channel activities. During the initial dye-loading step, the Tl+ indicator dye as an acetoxymethyl (AM) ester enters the cells through passive diffusion. Cytoplasm esterases cleave the AM ester and relieve its active thallium-sensitive form. The cells are then stimulated with Tl+. The increase of fluorescence in the assay represents the influx of Tl+ into the cell specifically through the potassium channel (i.e. through APOL1 pores), providing a functional measurement of potassium channel/pore activity. The Thallium assay is conducted with cells expressing G1 APOL1.
# APOL1 Cell Line (HEK T-Rex Stable Inducible Cell Line) • HEK T-Rex System • Tetracycline (Tet) inducible mammalian expression system. • Stably express the Tet repressor to regulate transcription. • Expression under the full-length CMV promoter. • APOL1 stable inducible cell line Clone used: G1 DC3.25
# Tissue Culture Media • Cell Culture Medium • DMEM+10% FBS+P/S+5 μg/mL blasticidin+1 μg/mL puromycin. • 500 mL DMEM+55 mL FBS+5 mL P/S+280 μL blasticidin S HCl (10 mg/mL)+56 μL puromycin (10 mg/mL). • Cell Assay Medium • DMEM with 2% FBS+penicillin/streptomycin.
# Instruments and Equipment • Nuaire cell culture hood, Cat. No. 540-600 • 37° C./5% CO2 incubator link to robotic arm, Liconic: STX110 • Molecular Devices FLIPR^Tetra High throughput cellular screening system, Cat. No. FT0324, Molecular Devices • ThermoFisher MultiDrop 384, Cat. No. 5840300 • Biotek Microfill, Cat. No. ASF1000A-4145 • BioRad TC10 cell counter, Cat. No. 145-0010
# Cells Scaled Up from Frozen Vials • APOL1 G1 3.25 (HEK293 T-Rex) frozen vials: 5 million cells per vial • Step 1, Day 1: Defrost frozen vial into T-225. • Step 2, Day 5: (when 85% confluent): Split one T-225 at 3×10^6 cells per flask. • Step 3, Day 8: Splits cells to set up for the assay plates as described below.
# T-Rex APOL1 HEK cells are split twice per week to keep the confluence state below 85% of the culture flask surface area. Cells can be kept until passage 25. • Cell Culture Medium • DMEM high glucose+10% FBS, +P/S, +5 μg/mL blasticidin, +1 μg/mL puromycin. • 500 mL DMEM, +55 mL FBS, +5 mL P/S, +280 μL blasticidin 10 mg/mL, +56 μL Puromycin 10 mg/mL. • Assay Media • Opti-MEM reduced serum medium from Invitrogen.
# Preparation of Cell Assay Plates • Culture medium is removed from the x cm^2 T-flask by aspiration. • The cell monolayer is rinsed with PBS 1× at room temperature. PBS is removed by aspiration. • Cells are trypsinized using Trypsin. • The flasks are incubated at room temperature for 2-3 minutes. • Complete DMEM medium is then added. Cell suspension is then transferred to a 50 mL Falcon polypropylene tube. • Cells are then counted using a BioRad TC10 cell counter and the required amount of cells are centrifuged at 1200 RPM for 5 minutes. Required amount is 1.3×10^6 cells/mL APOL1 T-Rex HEK cells. • The pellet is suspended in the assay medium. • Using the MultiDrop, add 20 μL to each well (corresponds to 26000 cells total per well) of a 384-well black, transparent, flat bottom Poly-D coated plate. • Tetracycline as prepared in the following section is added to the cells before plating to induce APOL1 expression. • Plates are left at room temperature for 20 to 30 minutes before incubation at 37° C. and 5% CO2. […]
row,SMILES,IC50 [nM]
1,"CN(C)CCc1c(-c2ccc(F)cc2)[nH]c2c(F)cc(F)cc12 [Compound 429, 2-[5,7-difluoro-2-(4-fluorophenyl)-1H-indol-3-yl]-N,N-dimethyl-ethanamine]",> 1000

# Same assay, conditions: HEK 293 inducible stable clones, G1 APOL1; read-out: Thallium Assay (IC50)
row,SMILES,IC50 [nM]
1,"C[C@@H]1NC(=O)N(CCc2c(-c3ccc(F)cc3)[nH]c3c(F)cc(F)cc23)C1=O [Compound 257, (5S)-3-[2-[5,7-difluoro-2-(4-fluorophenyl)-1H-indol-3-yl]ethyl]-5-methyl-imidazolidine-2,4-dione]",> 1000
2,C[C@@H](CO)NC(=O)N(C)CCc1c(-c2ccc(F)cc2)[nH]c2c(F)cc(F)cc12 [Compound 303],> 1000
3,O=C(NCCc1c(-c2ccc(F)cc2)[nH]c2c(F)cc(F)cc12)c1cc(C(F)(F)F)n[nH]1 [Compound 315],> 1000
4,O=C(NCCc1c(-c2ccc(F)cc2)[nH]c2c(F)cc(F)cc12)c1c[nH]cn1 [Compound 353],250 to 1000
5,CS(=O)(=O)CC(=O)NCCc1c(-c2ccc(F)cc2)[nH]c2c(F)cc(F)cc12 [Compound 382],> 1000
6,O=S(=O)(NCCc1c(-c2ccc(F)cc2)[nH]c2c(F)cc(F)cc12)C1CCOCC1 [Compound 423],> 1000
7,O=C(NCCc1c(-c2ccc(F)cc2)[nH]c2c(F)cc(F)cc12)c1nc(C(F)(F)F)cs1 [Compound 368],> 1000
8,O=C(NCCc1c(-c2ccc(F)cc2)[nH]c2c(F)cc(F)cc12)N[C@@H]1CC[C@@H](O)C1 [Compound 273],> 1000
9,O=C1CC(C(=O)NCCc2c(-c3ccc(F)cc3)[nH]c3c(F)cc(F)cc23)NC(=O)N1 (centres unmarked) [Compound 309],> 1000
10,O=C(NCCc1c(-c2ccc(F)cc2)[nH]c2c(F)cc(F)cc12)NCC1(O)CCCC1 [Compound 266],> 1000
11,"COC(=O)/C=C/c1c(-c2ccc(C#N)cc2)[nH]c2c(F)cc(F)cc12 [Compound 521, Methyl (E)-3-[2-(4-cyanophenyl)-5,7-difluoro-1H-indol-3-yl]prop-2-enoate]",> 1000
12,O=C1CC(C(=O)NCCc2c(-c3ccc(F)cc3)[nH]c3c(F)cc(F)cc23)C(=O)N1 (centres unmarked) [Compound 333],< 250
13,O=C(N[C@H]1C[C@H](O)C1)OCCc1c(-c2ccc(F)cc2)[nH]c2c(F)cc(F)cc12 [Compound 464],250 to 1000
14,O=C(NCC(F)F)OCCc1c(-c2ccc(F)cc2)[nH]c2c(F)cc(F)cc12 [Compound 449],< 250
15,O=C(CCc1c(-c2ccc(F)cc2)[nH]c2c(F)cc(Cl)cc12)NC[C@@H](O)CO [Compound 210],> 1000
16,C[C@@H]1NC(=O)[C@H]1NC(=O)CCc1c(-c2ccc(F)cc2)[nH]c2c(F)cc(F)cc12 [Compound 96],250 to 1000
17,Cn1cc(CNC(=O)OCCc2c(-c3ccc(F)cc3)[nH]c3c(F)cc(F)cc23)nn1 [Compound 490],> 1000
18,O=C(CCc1c(-c2ccc(F)cc2)[nH]c2c(F)cc(Cl)cc12)NC(CO)(CO)CO [Compound 195],250 to 1000
19,C[C@H](CO)NC(=O)CCCc1c(-c2ccc(F)cc2)[nH]c2c(F)cc(F)cc12 [Compound 241],250 to 1000
20,CC(C)(C)OC(=O)N[C@@H](CCO)C(=O)NCCc1c(-c2ccc(F)cc2)[nH]c2c(F)cc(F)cc12 [Compound 307],> 1000
21,CC(C)(CO)C(=O)NCCc1c(-c2ccc(F)cc2)[nH]c2c(F)cc(F)cc12 [Compound 341],250 to 1000
22,NC(=O)C(=O)NCCc1c(-c2ccc(F)cc2)[nH]c2c(F)cc(F)cc12 [Compound 364],250 to 1000
23,Cn1cnc(C(=O)NCCc2c(-c3ccc(F)cc3)[nH]c3c(F)cc(F)cc23)c1 [Compound 389],> 1000
24,O=C(NCc1ncc[nH]1)OCCc1c(-c2ccc(F)cc2)[nH]c2c(F)cc(F)cc12 [Compound 484],> 1000

# The next lines start with the values.
row,IC50 [nM],SMILES
1,> 1000,O=C(NCC1(O)CCS(=O)(=O)C1)OCCc1c(-c2ccc(F)cc2)[nH]c2c(F)cc(F)cc12 (centres unmarked) [Compound 498]
2,250 to 1000,CC(C#N)(CO)NC(=O)OCCc1c(-c2ccc(F)cc2)[nH]c2c(F)cc(F)cc12 (racemic) [Compound 461]
3,> 1000,Cc1cc(F)c2[nH]c(-c3ccc(F)cc3)c(CCC(=O)N[C@@H](C)CO)c2c1 [Compound 222]
4,> 1000,O=C(CO)NCCc1c(-c2ccc(F)cc2)[nH]c2c(F)cc(F)cc12 [Compound 365]
5,> 1000,O=C(Cn1nccn1)NCCc1c(-c2ccc(F)cc2)[nH]c2c(F)cc(F)cc12 [Compound 387]
6,> 1000,O=C(NCCc1ccncc1)NCCc1c(-c2ccc(F)cc2)[nH]c2c(F)cc(F)cc12 [Compound 288]
7,> 1000,O=C(NCCc1c(-c2ccc(F)cc2)[nH]c2c(F)cc(F)cc12)c1cncc(F)c1 [Compound 377]
8,> 1000,O=C(NCCc1c(-c2ccc(F)cc2)[nH]c2c(F)cc(F)cc12)C(F)F [Compound 414]
9,< 250,O=C(NCCc1c(-c2ccc(F)cc2)[nH]c2c(F)cc(F)cc12)C1(CO)CC1 [Compound 347]
10,250 to 1000,CC(O)C(C)NC(=O)OCCc1c(-c2ccc(F)cc2)[nH]c2c(F)cc(F)cc12 (mixture of isomers) [Compound 453]
11,> 1000,CC(CCO)NC(=O)CCc1c(-c2ccc(F)cc2)[nH]c2c(F)cc(F)cc12 (racemic) [Compound 147]
12,> 1000,"O=C(/C=C/c1c(-c2ccc(F)cc2)[nH]c2c(F)ccc(F)c12)N[C@H]1CCNC1=O [Compound 520, (E)-3-[4,7-difluoro-2-(4-fluorophenyl)-1H-indol-3-yl]-N-[(3S)-2-oxopyrrolidin-3-yl]prop-2-enamide]"
13,> 1000,O=C(NCCc1c(-c2ccc(F)cc2)[nH]c2c(F)cc(F)cc12)N[C@H]1CCNC1=O [Compound 277]
14,> 1000,Cn1cnc(CNC(=O)CCCc2c(-c3ccc(F)cc3)[nH]c3c(F)cc(F)cc23)c1 [Compound 244]
15,> 1000,N#CCC(=O)NCCc1c(-c2ccc(F)cc2)[nH]c2c(F)cc(F)cc12 [Compound 416]
16,> 1000,O=C1C[C@@H](NC(=O)CCCc2c(-c3ccc(F)cc3)[nH]c3c(F)cc(F)cc23)C(=O)N1 [Compound 242]
17,250 to 1000,NC(=O)C1(NC(=O)CCc2c(-c3ccc(F)cc3)[nH]c3c(F)cc(F)cc23)CC1 [Compound 107]
18,> 1000,CN1CC(NC(=O)NCCc2c(-c3ccc(F)cc3)[nH]c3c(F)cc(F)cc23)CC1=O (centres unmarked) [Compound 294]
19,> 1000,O=C1NCC(C(=O)NCCc2c(-c3ccc(F)cc3)[nH]c3c(F)cc(F)cc23)O1 (centres unmarked) [Compound 337]
20,> 1000,O=C1N[C@H](C(=O)NCCc2c(-c3ccc(F)cc3)[nH]c3c(F)cc(F)cc23)CO1 [Compound 336]
21,> 1000,O=C(NCCc1c(-c2ccc(F)cc2)[nH]c2c(F)cc(F)cc12)[C@H]1CC[C@H](O)CC1 [Compound 325]
22,250 to 1000,C[C@@H](O)[C@@H](CO)NC(=O)OCCc1c(-c2ccc(F)cc2)[nH]c2c(F)cc(F)cc12 [Compound 454]
